From ChEMBL document CHEMBL5291721, “A preclinical secondary pharmacology resource illuminates target-adverse drug reaction associations of marketed drugs” (Nat Commun, 2023)

Columns and labels:
[1] = molecular target: T1, Alpha-2A adrenergic receptor (Homo sapiens, UniProt P08913)
T1 sequence (P08913 whole entry): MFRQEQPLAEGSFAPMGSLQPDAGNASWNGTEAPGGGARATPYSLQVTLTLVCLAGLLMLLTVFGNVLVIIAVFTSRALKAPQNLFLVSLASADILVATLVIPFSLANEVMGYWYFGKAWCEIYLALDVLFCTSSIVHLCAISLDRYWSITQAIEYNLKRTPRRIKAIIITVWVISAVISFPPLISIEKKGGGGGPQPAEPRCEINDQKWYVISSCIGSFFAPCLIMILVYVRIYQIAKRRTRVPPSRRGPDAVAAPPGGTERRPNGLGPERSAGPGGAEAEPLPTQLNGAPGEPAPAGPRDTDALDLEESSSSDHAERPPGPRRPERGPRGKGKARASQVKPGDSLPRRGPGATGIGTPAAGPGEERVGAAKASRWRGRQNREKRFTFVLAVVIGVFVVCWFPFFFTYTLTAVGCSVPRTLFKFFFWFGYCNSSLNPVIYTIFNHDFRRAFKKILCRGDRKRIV

[2] = molecular target: Beta-3 adrenergic receptor (Homo sapiens, UniProt P13945)
Chain of Beta-3 adrenergic receptor (P13945 whole entry): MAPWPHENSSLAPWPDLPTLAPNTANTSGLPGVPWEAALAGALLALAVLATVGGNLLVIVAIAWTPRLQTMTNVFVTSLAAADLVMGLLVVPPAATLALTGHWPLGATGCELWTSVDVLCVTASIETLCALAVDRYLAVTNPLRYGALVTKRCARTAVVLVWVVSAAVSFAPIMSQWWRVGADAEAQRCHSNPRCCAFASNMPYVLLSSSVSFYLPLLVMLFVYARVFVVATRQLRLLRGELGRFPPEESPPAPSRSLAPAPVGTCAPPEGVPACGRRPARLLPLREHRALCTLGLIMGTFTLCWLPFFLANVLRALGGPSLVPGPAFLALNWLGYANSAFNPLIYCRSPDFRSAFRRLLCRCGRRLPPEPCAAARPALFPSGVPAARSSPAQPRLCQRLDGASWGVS

[3] = molecular target: T2, Gastric inhibitory polypeptide receptor (Homo sapiens, UniProt P48546)
T2 sequence (P48546 whole entry): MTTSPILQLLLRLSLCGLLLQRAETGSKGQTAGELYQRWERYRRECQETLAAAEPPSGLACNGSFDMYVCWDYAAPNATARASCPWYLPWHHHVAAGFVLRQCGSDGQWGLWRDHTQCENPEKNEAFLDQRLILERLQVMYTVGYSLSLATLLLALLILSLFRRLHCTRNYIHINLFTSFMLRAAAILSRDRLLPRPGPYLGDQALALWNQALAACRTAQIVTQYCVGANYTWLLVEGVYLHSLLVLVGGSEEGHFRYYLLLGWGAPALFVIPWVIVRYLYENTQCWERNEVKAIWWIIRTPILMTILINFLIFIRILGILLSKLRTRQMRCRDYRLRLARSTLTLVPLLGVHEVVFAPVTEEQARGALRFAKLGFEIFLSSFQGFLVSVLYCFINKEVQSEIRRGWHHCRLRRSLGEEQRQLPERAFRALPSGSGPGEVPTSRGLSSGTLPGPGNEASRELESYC

[4] = molecular target: T3, 5-hydroxytryptamine receptor 1A (Homo sapiens, UniProt P08908)
T3 sequence (P08908 whole entry): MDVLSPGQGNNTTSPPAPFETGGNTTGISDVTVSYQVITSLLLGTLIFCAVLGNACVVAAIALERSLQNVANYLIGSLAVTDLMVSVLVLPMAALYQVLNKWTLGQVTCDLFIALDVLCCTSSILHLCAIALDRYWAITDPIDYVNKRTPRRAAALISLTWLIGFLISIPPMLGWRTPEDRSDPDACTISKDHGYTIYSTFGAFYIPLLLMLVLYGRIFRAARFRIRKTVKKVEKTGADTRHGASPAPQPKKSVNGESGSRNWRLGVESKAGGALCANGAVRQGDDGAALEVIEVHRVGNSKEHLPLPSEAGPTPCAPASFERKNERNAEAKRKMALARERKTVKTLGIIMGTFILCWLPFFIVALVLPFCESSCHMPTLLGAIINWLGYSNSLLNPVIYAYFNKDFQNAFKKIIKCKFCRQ

D(1A) dopamine receptor = D(1A) dopamine receptor (Homo sapiens, UniProt P21728)
Chain of D(1A) dopamine receptor (P21728 whole entry): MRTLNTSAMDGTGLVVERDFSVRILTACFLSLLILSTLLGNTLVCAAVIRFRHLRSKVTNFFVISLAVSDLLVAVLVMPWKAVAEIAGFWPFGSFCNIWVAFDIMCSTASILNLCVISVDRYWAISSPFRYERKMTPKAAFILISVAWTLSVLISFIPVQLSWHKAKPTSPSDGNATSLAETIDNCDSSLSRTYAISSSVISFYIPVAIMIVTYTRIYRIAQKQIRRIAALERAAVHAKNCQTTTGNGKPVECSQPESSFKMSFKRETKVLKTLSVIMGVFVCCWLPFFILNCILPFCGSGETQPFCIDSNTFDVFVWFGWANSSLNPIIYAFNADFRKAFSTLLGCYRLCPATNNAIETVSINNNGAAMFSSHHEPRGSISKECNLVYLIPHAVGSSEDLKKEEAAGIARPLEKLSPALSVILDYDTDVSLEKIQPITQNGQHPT

Glucagon receptor = Glucagon receptor (Homo sapiens, UniProt P47871)
Chain of Glucagon receptor (P47871 whole entry): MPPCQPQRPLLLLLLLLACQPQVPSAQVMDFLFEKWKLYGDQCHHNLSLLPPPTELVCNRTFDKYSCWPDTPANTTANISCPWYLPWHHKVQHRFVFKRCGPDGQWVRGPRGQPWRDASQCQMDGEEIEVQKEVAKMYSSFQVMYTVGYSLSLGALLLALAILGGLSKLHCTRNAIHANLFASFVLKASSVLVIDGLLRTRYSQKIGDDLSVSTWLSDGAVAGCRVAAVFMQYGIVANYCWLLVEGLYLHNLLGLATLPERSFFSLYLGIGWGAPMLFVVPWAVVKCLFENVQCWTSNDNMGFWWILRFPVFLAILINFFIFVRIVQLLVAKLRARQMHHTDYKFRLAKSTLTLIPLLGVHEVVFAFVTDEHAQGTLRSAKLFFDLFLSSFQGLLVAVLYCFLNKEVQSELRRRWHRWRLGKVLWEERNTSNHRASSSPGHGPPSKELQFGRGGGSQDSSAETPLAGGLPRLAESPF

[5] = molecular target: T4, Peroxisome proliferator-activated receptor gamma (Homo sapiens, UniProt P37231); format: functional
T4 sequence (P37231 whole entry): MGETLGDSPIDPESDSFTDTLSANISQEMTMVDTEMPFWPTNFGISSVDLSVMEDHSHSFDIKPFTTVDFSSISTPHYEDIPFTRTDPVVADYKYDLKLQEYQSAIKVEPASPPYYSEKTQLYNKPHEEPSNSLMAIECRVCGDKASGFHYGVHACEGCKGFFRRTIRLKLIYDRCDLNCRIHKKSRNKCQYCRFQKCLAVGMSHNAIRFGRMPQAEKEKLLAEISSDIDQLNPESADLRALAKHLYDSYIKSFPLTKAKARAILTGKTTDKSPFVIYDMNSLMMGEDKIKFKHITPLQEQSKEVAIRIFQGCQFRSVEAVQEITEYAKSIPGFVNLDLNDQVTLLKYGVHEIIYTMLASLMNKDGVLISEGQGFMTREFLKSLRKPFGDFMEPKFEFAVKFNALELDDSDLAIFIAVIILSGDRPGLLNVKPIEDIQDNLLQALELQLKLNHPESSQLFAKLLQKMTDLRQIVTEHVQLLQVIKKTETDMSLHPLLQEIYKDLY

Mu-type opioid receptor = Mu-type opioid receptor (Homo sapiens, UniProt P35372); assay: biochemical; format: functional
Chain of Mu-type opioid receptor (P35372 whole entry): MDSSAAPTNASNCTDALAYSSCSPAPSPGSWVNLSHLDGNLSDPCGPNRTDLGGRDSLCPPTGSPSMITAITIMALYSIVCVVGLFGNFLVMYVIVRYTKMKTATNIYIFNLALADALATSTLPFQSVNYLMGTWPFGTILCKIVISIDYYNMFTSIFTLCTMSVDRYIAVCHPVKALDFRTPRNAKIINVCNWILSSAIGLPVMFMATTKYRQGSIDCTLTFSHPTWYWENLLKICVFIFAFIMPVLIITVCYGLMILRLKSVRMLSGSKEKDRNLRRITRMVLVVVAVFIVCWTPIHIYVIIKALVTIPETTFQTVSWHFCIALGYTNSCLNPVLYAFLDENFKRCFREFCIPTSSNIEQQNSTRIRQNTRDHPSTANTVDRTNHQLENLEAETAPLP

[6] = molecular target: T5, Alpha-2B adrenergic receptor (Homo sapiens, UniProt P18089)
T5 sequence (P18089 whole entry): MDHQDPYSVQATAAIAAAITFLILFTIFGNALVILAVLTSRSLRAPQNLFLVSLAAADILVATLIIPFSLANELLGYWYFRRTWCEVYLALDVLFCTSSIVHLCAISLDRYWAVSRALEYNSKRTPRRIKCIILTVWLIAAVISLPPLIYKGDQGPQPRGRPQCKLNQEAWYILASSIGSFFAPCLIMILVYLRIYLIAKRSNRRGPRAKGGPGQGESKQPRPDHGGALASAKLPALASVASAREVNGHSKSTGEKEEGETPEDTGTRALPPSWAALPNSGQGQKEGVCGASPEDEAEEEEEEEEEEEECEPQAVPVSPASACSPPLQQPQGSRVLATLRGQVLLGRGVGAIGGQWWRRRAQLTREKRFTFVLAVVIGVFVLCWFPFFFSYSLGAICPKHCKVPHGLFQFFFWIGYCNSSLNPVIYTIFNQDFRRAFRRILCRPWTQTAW

[7] = molecular target: Gamma-aminobutyric acid receptor subunit alpha-1/alpha-2/beta-2/gamma-2 (Homo sapiens, UniProt P14867+P18507+P47869+P47870); format: functional, cell-based
Chain of Gamma-aminobutyric acid receptor subunit alpha-1/alpha-2/beta-2/gamma-2 (P14867 whole entry): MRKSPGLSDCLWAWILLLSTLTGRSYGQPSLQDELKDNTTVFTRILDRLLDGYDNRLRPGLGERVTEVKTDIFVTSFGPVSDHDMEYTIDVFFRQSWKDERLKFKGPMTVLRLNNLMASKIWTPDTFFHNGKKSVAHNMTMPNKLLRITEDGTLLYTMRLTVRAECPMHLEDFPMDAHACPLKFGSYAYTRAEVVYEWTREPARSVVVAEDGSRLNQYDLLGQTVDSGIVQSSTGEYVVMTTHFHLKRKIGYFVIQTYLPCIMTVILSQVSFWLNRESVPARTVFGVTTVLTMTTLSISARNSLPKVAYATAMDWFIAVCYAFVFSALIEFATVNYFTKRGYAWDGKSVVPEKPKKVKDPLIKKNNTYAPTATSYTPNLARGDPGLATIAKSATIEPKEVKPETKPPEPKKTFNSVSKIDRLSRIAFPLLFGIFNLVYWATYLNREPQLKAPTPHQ
Chain of Gamma-aminobutyric acid receptor subunit alpha-1/alpha-2/beta-2/gamma-2 (P47870 whole entry): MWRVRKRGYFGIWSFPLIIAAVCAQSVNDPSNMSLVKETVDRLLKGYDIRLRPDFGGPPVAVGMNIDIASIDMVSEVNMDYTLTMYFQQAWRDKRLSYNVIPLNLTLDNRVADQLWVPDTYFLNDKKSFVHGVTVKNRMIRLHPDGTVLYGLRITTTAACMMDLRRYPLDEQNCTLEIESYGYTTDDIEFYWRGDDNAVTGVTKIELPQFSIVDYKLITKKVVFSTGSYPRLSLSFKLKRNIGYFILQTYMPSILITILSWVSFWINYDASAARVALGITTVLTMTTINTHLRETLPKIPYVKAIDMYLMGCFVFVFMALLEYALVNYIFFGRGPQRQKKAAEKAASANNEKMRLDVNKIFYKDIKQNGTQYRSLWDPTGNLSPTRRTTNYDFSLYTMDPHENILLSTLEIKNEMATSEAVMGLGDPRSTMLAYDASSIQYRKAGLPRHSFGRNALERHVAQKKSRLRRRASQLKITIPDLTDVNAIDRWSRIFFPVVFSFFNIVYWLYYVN
Chain of Gamma-aminobutyric acid receptor subunit alpha-1/alpha-2/beta-2/gamma-2 (P18507 whole entry): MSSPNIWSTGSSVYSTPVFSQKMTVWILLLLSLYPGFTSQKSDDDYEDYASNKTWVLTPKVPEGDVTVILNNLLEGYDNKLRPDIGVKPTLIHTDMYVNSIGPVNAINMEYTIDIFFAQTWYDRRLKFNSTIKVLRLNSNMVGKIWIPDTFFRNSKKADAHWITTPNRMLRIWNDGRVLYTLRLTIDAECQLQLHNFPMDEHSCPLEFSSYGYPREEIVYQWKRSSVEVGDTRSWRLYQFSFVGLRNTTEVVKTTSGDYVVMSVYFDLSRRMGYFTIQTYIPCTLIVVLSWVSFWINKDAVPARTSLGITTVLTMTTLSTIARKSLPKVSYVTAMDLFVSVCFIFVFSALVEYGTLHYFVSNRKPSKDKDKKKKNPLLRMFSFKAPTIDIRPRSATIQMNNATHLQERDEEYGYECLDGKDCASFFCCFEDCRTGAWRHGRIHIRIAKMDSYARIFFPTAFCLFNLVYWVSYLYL
Chain of Gamma-aminobutyric acid receptor subunit alpha-1/alpha-2/beta-2/gamma-2 (P47869 whole entry): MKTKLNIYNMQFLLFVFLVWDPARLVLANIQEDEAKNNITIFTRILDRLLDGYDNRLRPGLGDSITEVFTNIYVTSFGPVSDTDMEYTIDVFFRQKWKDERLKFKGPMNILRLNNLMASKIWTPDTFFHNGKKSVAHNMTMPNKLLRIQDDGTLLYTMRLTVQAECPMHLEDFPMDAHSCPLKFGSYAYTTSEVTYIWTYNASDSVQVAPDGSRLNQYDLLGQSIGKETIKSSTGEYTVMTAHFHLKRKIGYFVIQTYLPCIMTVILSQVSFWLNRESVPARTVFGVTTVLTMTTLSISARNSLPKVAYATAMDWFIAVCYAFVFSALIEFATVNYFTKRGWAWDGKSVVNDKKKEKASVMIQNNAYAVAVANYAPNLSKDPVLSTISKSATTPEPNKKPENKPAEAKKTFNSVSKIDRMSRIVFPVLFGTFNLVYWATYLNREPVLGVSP
Note: assay procedure not described here.

Row | SMILES | AC50 [1] [µM] | AC50 [2] [µM] | AC50 [3] [µM] | AC50 [4] [µM] | AC50 (D(1A) dopamine receptor) [µM] | AC50 (Glucagon receptor) [µM] | AC50 [5] [µM] | AC50 (Mu-type opioid receptor) [µM] | AC50 [6] [µM] | AC50 [7] [µM]
1 | Cc1onc(-c2ccccc2)c1-c1ccc(S(N)(=O)=O)cc1 [VALDECOXIB] | > 10 | > 30 | > 30 | > 10 | > 10 | > 30 | > 30 | – | – | –
2 | CCCN(CCC)C(=O)Cc1c(-c2ccc(Cl)cc2)nc2ccc(Cl)cn12 [ALPIDEM] | > 10 | – | – | > 10 | > 10 | > 10 | – | > 30 | > 30 | > 10
3 | C[C@H]1c2cccc(O)c2C(=O)C2=C(O)[C@]3(O)C(=O)C(C(N)=O)=C(O)[C@@H](N(C)C)[C@@H]3[C@@H](O)[C@@H]21 [DOXYCYCLINE] | > 10 | > 30 | > 30 | > 10 | > 10 | > 30 | – | – | – | –
4 | CN(C)CC[C@@H](c1ccc(Cl)cc1)c1ccccn1 [DEXCHLORPHENIRAMINE] | – | – | – | – | – | – | – | > 30 | – | –
5 | CC(S)C(=O)NCC(=O)O (stereo unspecified) [TIOPRONIN] | – | – | – | – | – | – | > 30 | – | > 30 | > 30
6 | CN1C(C(=O)Nc2ccccn2)=C(O)c2ccccc2S1(=O)=O [PIROXICAM] | – | – | – | – | – | – | – | > 30 | – | –
7 | CCCC(CCC)C(=O)O [VALPROIC ACID] | > 10 | > 30 | > 30 | > 10 | > 10 | > 30 | – | – | – | –
8 | CC(C(=O)O)c1ccc2c(c1)[nH]c1ccc(Cl)cc12 (stereo unspecified) [CARPROFEN] | – | – | – | – | – | – | – | – | > 10 | –
9 | COc1ccc(CC2c3cc(OC)c(OC)cc3CC[N+]2(C)CCC(=O)OCCCCCOC(=O)CC[N+]2(C)CCc3cc(OC)c(OC)cc3C2Cc2ccc(OC)c(OC)c2)cc1OC (stereo unspecified) | > 30 | – | – | – | – | – | – | > 30 | > 30 | –
10 | COc1ccccc1OCCNCC(O)COc1cccc2[nH]c3ccccc3c12 (stereo unspecified) [CARVEDILOL] | 0.189 | – | > 30 | 0.02 | 2.28 | > 30 | > 30 | 5.2 | – | –
11 | O=C1CN(/N=C/c2ccc(-c3ccc([N+](=O)[O-])cc3)o2)C(O)=N1 [DANTROLENE] | – | – | – | – | – | – | – | > 30 | > 10 | –
12 | C=C[C@H]1C[N@@]2CC[C@H]1C[C@@H]2[C@@H](O)c1ccnc2ccc(OC)cc12 [QUINIDINE] | – | – | – | > 10 | – | – | – | > 30 | 6.5 | –
13 | CCN(CC)CCNC(=O)c1c(C)[nH]c(/C=C2\C(=O)Nc3ccc(F)cc32)c1C [SUNITINIB] | 9.47 | – | – | 7.13 | – | – | – | > 30 | 4.37 | –
14 | O=C1CCc2cc(OCCCCc3nnnn3C3CCCCC3)ccc2N1 [CILOSTAZOL] | – | – | – | > 10 | – | – | – | > 30 | – | –
15 | C[C@@H](NCCCc1cccc(C(F)(F)F)c1)c1cccc2ccccc12 | – | – | – | – | – | – | – | 1.9 | > 30 | > 30
